Source: US20140051575A1 (priority 2011, published 2014)

Assays:
Phytophthora infestans = type: in vivo; conditions: tomato plants, preventive spray, 500 ppm of active ingredient, evaluated 7 days after inoculation; 0% = untreated control, 100% = no disease
[1] = Measurement of logP values by HPLC on reversed phase columns (EEC directive 79/831 Annex V.A8); type: physicochemical; conditions: pH 2.7, 0.1% formic acid in water / acetonitrile gradient, calibration with alkan-2-ones
Protocol: Measurement of logP values was performed according EEC directive 79/831 Annex V.A8 by HPLC (High Performance Liquid Chromatography) on reversed phase columns with the following methods:
Measurement of LC-MS was done at pH 2.7 with 0.1% formic acid in water and with acetonitrile (contains 0.1% formic acid) as eluent with a linear gradient from 10% acetonitrile to 95% acetonitrile.
Calibration was done with not branched alkan2-ones (with 3 to 16 carbon atoms) with known logP-values (measurement of logP values using retention times with linear interpolation between successive alkanones). lambda-maX-values were determined using UV-spectra from 200 nm to 400 nm and the peak values of the chromatographic signals.

Plasmopara viticola = experiment: Plasmopara test (grapevines)/preventive; type: in vivo; conditions: preventive spray, 10 ppm of active ingredient, evaluated 6 days after inoculation, 0% = untreated control, 100% = no disease
Protocol: To produce a suitable preparation of active compound, 1 part by weight of active compound is mixed with the stated amounts of solvent and emulsifier, and the concentrate is diluted with water to the desired concentration.
To test for preventive activity, young plants are sprayed with the preparation of active compound at the stated rate of application. After the spray coating has dried on, the plants are inoculated with an aqueous spore suspension of Plasmopara viticola and then remain for 1 day in an incubation cabinet at approximately 20° C. and a relative atmospheric humidity of 100%. The plant is subsequently placed for 4 days in a greenhouse at approximately 21° C. and a relative atmospheric humidity of approximately 90%. The plants are then misted and placed for 1 day in an incubation cabinet.
The test is evaluated 6 days after the inoculation. 0% means an efficacy which corresponds to that of the untreated control, while an efficacy of 100% means that no disease is observed.

Pythium ultimum = experiment: Pythium test (cotton)/seed treatment; type: in vivo; conditions: 50 g/dt seed of active ingredient, greenhouse 7 days, 100% = all seedlings have emerged
Protocol: The test is performed under greenhouse conditions.
Cotton seeds, treated with the active compound or compound combinations, solved in N-methyl-2-pyrrolidon and diluted with water to the desired dosages, were sown in 6*6 cm pots containing 4 cm of a 1:1 mix of steamed field soil and sand.
Perlite was incubated with mycelium fragments of Pythium ultimum. 1 ml of infected perlite was scattered between the treated cotton seeds. Seeds were then covered by light expanded clay aggregate. Pots were incubated in the greenhouse 7 days at 20° C. and 80% relative humidity.
Assessment consisted of counting of emerged seedlings. 0% means an efficacy which corresponds to that of the control, while an efficacy of 100% means that all seedlings have emerged.

Row | Structure (SMILES) | Eff. % (Phytophthora infestans) [%] | Log P [1] | Eff. % (Plasmopara viticola) [%] | Eff. % (Pythium ultimum) [%]
1 | CC(OCC1CC1)C(=O)Nc1ccc(F)c(CON=C(c2ccccc2)c2nnnn2C)n1 (stereo not drawn) [Example 9] | 100 | 3.71 | 89 | –
2 | Cc1nnnn1C(=NOCc1cccc(NC(=O)C(C)OCC2CC2)n1)c1ccccc1 (stereo not drawn) [Example 24] | 100 | 3.63 | 81 | –
3 | Cn1nnnc1C(=NOCc1csc(NC(=O)COCC2CCCCC2)n1)c1ccccc1 [Example 17] | 100 | 4.29 | 94 | –
4 | CC(SCc1ccccc1)C(=O)Nc1nc(CON=C(c2ccccc2)c2nnnn2C)cs1 (stereo not drawn) [Example 71] | 100 | 3.8 | 82 | –
5 | CC(OCC1CCC1)C(=O)Nc1nc(CON=C(c2ccccc2)c2nnnn2C)cs1 (stereo not drawn) [Example 22] | 100 | 3.83 | 88 | –
6 | Cc1ccccc1CSCC(=O)Nc1nc(CON=C(c2ccccc2)n2nnnc2C)cs1 [Example 88] | 100 | 4.06 | 84 | –
7 | CC(OCC1CCC1)C(=O)Nc1cccc(CON=C(c2ccccc2)c2nnnn2C)n1 (stereo not drawn) [Example 12] | 100 | 4.16 | 84 | –
8 | CC(C)CCOCC(=O)Nc1nc(CON=C(c2ccccc2)c2nnnn2C)cs1 [Example 45] | 100 | 3.8 | 91 | –
9 | CC(OCC1CCCO1)C(=O)Nc1nc(CON=C(c2ccccc2)c2nnnn2C)cs1 (stereo not drawn) [Example 60] | 100 | 3.15 | 85 | –
10 | CC(OCC1CC1)C(=O)Nc1cccc(CON=C(c2ccccc2)c2nnnn2C)n1 (stereo not drawn) [Example 2] | – | 3.55 | 95 | 100
11 | Cc1nnnn1C(=NOCc1csc(NC(=O)COCC2CCC2)n1)c1ccccc1 [Example 35] | 100 | 3.59 | 91 | –
12 | Cn1nnnc1C(=NOCc1csc(NC(=O)COCc2ccccc2)n1)c1ccccc1 [Example 50] | 100 | 3.37 | 100 | 93
13 | Cc1nnnn1C(=NOCc1csc(NC(=O)C(C)OCC2CC2)n1)c1ccccc1 (stereo not drawn) [Example 34] | 100 | 3.35 | 94 | 92
14 | CC(OCC1CCCC1)C(=O)Nc1nc(CON=C(c2ccccc2)c2nnnn2C)cs1 (stereo not drawn) [Example 19] | 100 | 4.25 | 91 | –
15 | Cc1nnnn1C(=NOCc1cccc(NC(=O)COCC2CCC2)n1)c1ccccc1 [Example 25] | 97 | 3.92 | 80 | –
16 | COC(C)CC(CC(=O)Nc1cccc(CON=C(c2ccccc2)c2nnnn2C)n1)OC (stereo not drawn) [Example 96] | 100 | 2.9 | 78 | –
17 | Cn1nnnc1C(=NOCc1cccc(NC(=O)COCC2CCC2)n1)c1ccccc1 [Example 4] | 97 | 3.83 | 80 | –
18 | CC(OCC1CC1)C(=O)Nc1nc(CON=C(c2ccccc2)c2nnnn2C)cs1 (stereo not drawn) [Example 14] | 100 | 3.29 | 97 | 100
19 | Cn1nnnc1C(=NOCc1cccc(NC(=O)COCc2ccccc2)n1)c1ccccc1 [Example 48] | 95 | 3.63 | 96 | –
20 | Cn1nnnc1C(=NOCc1cccc(NC(=O)OCCCOC2CCCC2)n1)c1ccccc1 [Example 98] | 100 | 4.14 | 81 | –
21 | Cc1nnnn1C(=NOCc1csc(NC(=O)C(C)OCC2CCC2)n1)c1ccccc1 (stereo not drawn) [Example 42] | 100 | 3.9 | 93 | –
22 | CC(SC1CCCCC1)C(=O)Nc1nc(CON=C(c2ccccc2)c2nnnn2C)cs1 (stereo not drawn) [Example 74] | 100 | 4.12 | 82 | –
23 | Cn1nnnc1C(=NOCc1csc(NC(=O)COCC2CCCC2)n1)c1ccccc1 [Example 16] | 97 | 3.9 | 90 | –
